Laboratory results: US20230017948A1, “COMBINATION THERAPY USING FABP5 INHIBITORS WITH TAXANES FOR TREATMENT OF CANCER” (The Research Foundation for The State University of New York, priority 2019, published 2023)

What was measured:
[1] = tested on: PCa cell; details: in vitro and in vivo (Al-Jameel, W. et al. 2017); cited from earlier work
[2] = tested on: PC3 cells; experiment: MTT cytotoxicity assay, single drugs and combinations, PC3 cells; format: cell-based; details: Homo sapiens, PC-3, 72-hour incubation
[3] = tested on: DU-145 cells; experiment: MTT cytotoxicity assay, single drugs and combinations, DU-145 cells; format: cell-based; details: Homo sapiens; DU-145, MTT, 72-hour incubation
[4] = tested on: 22Rv1 cells; experiment: cells; details: Homo sapiens, 22Rv1, 72 h, read-out: cytotoxicity IC50
[5] = MTT cytotoxicity assay, WI-38 cells (normal lung cell-line); format: cell-based; details: human, WI-38, MTT, 72-hour incubation
[6] = tested on: PC3 cells implanted subcutaneously; experiment: Subcutaneous PC3 tumor growth in male BALB/c nude mice; format: in vivo; details: ip
Experimental: Male BALB/c nude mice (BALB/cOlaHsd-Foxnlnu, 20-30 g, 7-8 weeks old) (Envigo RMS Inc, Indianapolis, Ind.) were used for all experiments. Animals were housed individually at room temperature and were kept on a 12:12-hour light:dark cycle with access to food and water ad libitum. Euthanasia was carried out utilizing CO2 asphyxiation. All of the experiments were approved by the Stony Brook University Animal Care and Use Committee.
Male BALB/c nude mice were subcutaneously inoculated with PC3 cells. Briefly, cells (1×10^6 per mouse) were resuspended in 100 μL of a 1:1 mixture of phosphate-buffered saline (PBS):Matrigel (Corning Inc, Corning, N.Y.) and implanted into a single dorsal lateral flank using a 21G needle. Tumor length (L) and tumor width (W) were measured twice weekly using digital calipers, and tumor volume (V) was calculated as (V═[L×W2]/2). When tumor volume reached approximately 150 to 200 mm3, animals were grouped and drug administration commenced. Humane endpoints for all animals were as follows: animals carrying a tumor burden greater than 35 days, body weight (which was recorded twice weekly) decreasing by greater than 15%, tumor ulceration, paralysis, failure to groom, bleeding, respiratory distress, and/or tumor volume reaching 1500 mm3.
SBFI-102, SBFI-103, and docetaxel were each reconstituted in a 1:1:8 vehicle consisting of dimethyl sulfoxide (DMSO) (Thermo Fisher Scientific, Hampton, N.H.):Cremaphor-EL (Sigma-Aldrich):saline. SBFI-102 and SBFI-103 were administered via intraperitoneal injection (ip) using a 27G needle at 20 mg/kg daily. Docetaxel was administered i.p. at 5 or 10 mg/kg weekly. All drugs were administered in a volume of 10 μL/g body weight.
All data were obtained from at least three independent experiments and then values described in each figure legend depict each independent trial or animal. Data for all in vivo experiments were analyzed using a one-way analysis of variance with the Tukey post hoc test (GraphPad Prism, version 8.0.2). Data are represented as means±SEM and P<0.05 was considered statistically significant. […]

[7] = MTT cytotoxicity assay, RWPE-1 cells (normal prostate cell-line); format: cell-based; details: human, RWPE-1, MTT, 72-hour incubation
[8] = 20 mg/kg, once daily, from day 15

| SMILES | effect on PCa cell growth, migration, invasion, tumor formation and metastasis [1] | IC50 [2] [µM] | IC50 [3] [µM] | IC50 [4] [µM] | IC50 at 72 h [5] [µM] | tumor growth [6, 8] | IC50 at 72 h [7] [µM] | tumor growth ([6]; docetaxel 10 mg/kg, once weekly) |
| --- | --- | --- | --- | --- | --- | --- | --- | --- |
| O=C(O)C1[C@H](c2ccccc2)C(C(=O)Oc2cccc3ccccc23)[C@H]1c1ccccc1 (some centres unmarked) [SBFI-26] | suppresses PCa cell growth, migration, invasion, tumor formation, and metastasis |  |  |  |  |  |  |  |
| CO[C@H]1C(=O)[C@]2(C)[C@@H](OC)C[C@H]3OC[C@@]3(OC(C)=O)[C@H]2[C@H](OC(=O)c2ccccc2)[C@]2(O)C[C@H](OC(=O)[C@H](O)[C@@H](NC(=O)OC(C)(C)C)c3ccccc3)C(C)=C1C2(C)C [cabazitaxel, reference compound] |  | 0.0016 | 0.0002 | 0.0003 |  |  |  |  |
| COc1ccccc1C1[C@H](C(=O)O)[C@H](c2ccccc2OC)[C@H]1C(=O)Oc1cccc2ccccc12 (some centres unmarked) [SBFI-102] |  | 11.4 | 8.9 | 10.1 | 29.4 | significantly reduced tumor growth | 26 |  |
| CC(=O)O[C@@]12CO[C@@H]1C[C@H](O)[C@@]1(C)C(=O)[C@H](O)C3=C(C)[C@@H](OC(=O)[C@H](O)[C@@H](NC(=O)OC(C)(C)C)c4ccccc4)C[C@@](O)([C@@H](OC(=O)c4ccccc4)[C@H]21)C3(C)C [docetaxel, reference compound] |  | 0.0019 | 0.0008 | 0.0003 |  |  |  | near complete inhibition of growth |
| COc1ccccc1C1[C@H](C(=O)O)[C@H](c2ccccc2OC)[C@H]1C(=O)OCC1c2ccccc2-c2ccccc21 (some centres unmarked) [SBFI-103] |  | 6.3 | 3.3 | 3.1 | 29.6 | significantly reduced tumor growth | 20.6 |  |
